Measurements as given in PubChem BioAssay (NCI).
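The compound was tested at five concentrations on cells cultured in 96-well plates, with a 48-hour exposure period. GI50 marks 50% less growth. Definition used: TGI = concentration required for complete inhibition of growth.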

Legend:
Assay in all cases: growth of human tumour cells (NCI), 48 h
SN12C renal = system: SN12C renal
SK-MEL-5 melanoma = system: SK-MEL-5 melanoma
SF-295 CNS = system: SF-295 CNS
NCI-H23 lung = system: NCI-H23 lung
HCT-15 colon = system: HCT-15 colon
UACC-62 melanoma = system: UACC-62 melanoma
SNB-19 CNS = system: SNB-19 CNS
SNB-75 CNS = system: SNB-75 CNS
MALME-3M melanoma = system: MALME-3M melanoma
CCRF-CEM leukemia = system: CCRF-CEM leukemia
HOP-62 NSCLC = system: HOP-62 NSCLC
MCF7 breast = system: MCF7 breast
SK-OV-3 ovarian = system: SK-OV-3 ovarian
SW-620 colon = system: SW-620 colon
K-562 leukemia = system: K-562 leukemia
NCI/ADR-RES ovarian = system: NCI/ADR-RES ovarian
BT-549 breast = system: BT-549 breast
A549 NSCLC = system: A549 NSCLC
COLO 205 colon = system: COLO 205 colon
HL-60(TB) leukemia = system: HL-60(TB) leukemia
NCI-H226 lung = system: NCI-H226 lung
786-0 renal = system: 786-0 renal
SF-539 CNS = system: SF-539 CNS
M14 melanoma = system: M14 melanoma
HS 578T breast = system: HS 578T breast
EKVX NSCLC = system: EKVX NSCLC
CAKI-1 renal = system: CAKI-1 renal
OVCAR-5 ovarian = system: OVCAR-5 ovarian
TK-10 renal = system: TK-10 renal
DU-145 prostate = system: DU-145 prostate
NCI-H460 lung = system: NCI-H460 lung
UACC-257 melanoma = system: UACC-257 melanoma
OVCAR-8 ovarian = system: OVCAR-8 ovarian
SF-268 CNS = system: SF-268 CNS
MOLT-4 leukemia = system: MOLT-4 leukemia
RXF 393 renal = system: RXF 393 renal
T-47D breast = system: T-47D breast
OVCAR-3 ovarian = system: OVCAR-3 ovarian
NCI-H522 lung = system: NCI-H522 lung
HOP-92 NSCLC = system: HOP-92 NSCLC
ACHN renal = system: ACHN renal
SK-MEL-2 melanoma = system: SK-MEL-2 melanoma
MDA-MB-231 breast = system: MDA-MB-231 breast
U251 CNS = system: U251 CNS
PC-3 prostate = system: PC-3 prostate
MDA-MB-435 = system: MDA-MB-435
A498 renal = system: A498 renal
IGROV1 ovarian = system: IGROV1 ovarian
OVCAR-4 ovarian = system: OVCAR-4 ovarian
HCT-116 colon = system: HCT-116 colon
RPMI-8226 leukemia = system: RPMI-8226 leukemia
SK-MEL-28 melanoma = system: SK-MEL-28 melanoma
HT29 colon = system: HT29 colon
SR leukemia = system: SR leukemia
HCC-2998 colon = system: HCC-2998 colon
UO-31 renal = system: UO-31 renal
LOX IMVI melanoma = system: LOX IMVI melanoma
KM12 colon = system: KM12 colon

CCc1c2c(nc3ccc(OC(=O)NCc4ccc(B5OC(C)(C)C(C)(C)O5)cc4)cc13)-c1cc3c(c(=O)n1C2)COC(=O)[C@]3(O)CC
GI50 (SN12C renal): < 10 nM
TGI (SN12C renal): > 100000 nM
GI50 (SK-MEL-5 melanoma): 35.6 nM
TGI (SK-MEL-5 melanoma): 301 nM
GI50 (SF-295 CNS): 16 nM
TGI (SF-295 CNS): 3400 nM
GI50 (NCI-H23 lung): 18.1 nM
TGI (NCI-H23 lung): 771 nM
GI50 (HCT-15 colon): 277 nM
TGI (HCT-15 colon): > 100000 nM
GI50 (UACC-62 melanoma): < 10 nM
TGI (UACC-62 melanoma): 220 nM
GI50 (SNB-19 CNS): < 10 nM
TGI (SNB-19 CNS): > 100000 nM
GI50 (SNB-75 CNS): 19.9 nM
TGI (SNB-75 CNS): 448 nM
GI50 (MALME-3M melanoma): 74.1 nM
TGI (MALME-3M melanoma): 1310 nM
GI50 (CCRF-CEM leukemia): < 10 nM
TGI (CCRF-CEM leukemia): > 100000 nM
GI50 (HOP-62 NSCLC): < 10 nM
TGI (HOP-62 NSCLC): 2920 nM
GI50 (MCF7 breast): < 10 nM
TGI (MCF7 breast): > 100000 nM
GI50 (SK-OV-3 ovarian): 28.6 nM
TGI (SK-OV-3 ovarian): 8180 nM
GI50 (SW-620 colon): 22.7 nM
GI50 (K-562 leukemia): 34.3 nM
TGI (K-562 leukemia): > 100000 nM
GI50 (NCI/ADR-RES ovarian): 51.1 nM
TGI (NCI/ADR-RES ovarian): > 100000 nM
GI50 (BT-549 breast): 52 nM
TGI (BT-549 breast): 2740 nM
GI50 (A549 NSCLC): 82.5 nM
TGI (A549 NSCLC): 8090 nM
GI50 (COLO 205 colon): 73.4 nM
TGI (COLO 205 colon): 11000 nM
GI50 (HL-60(TB) leukemia): < 19.1 nM
GI50 (NCI-H226 lung): 21.6 nM
TGI (NCI-H226 lung): 635 nM
GI50 (786-0 renal): 13.6 nM
TGI (786-0 renal): 346 nM
GI50 (SF-539 CNS): < 10 nM
TGI (SF-539 CNS): 77.1 nM
GI50 (M14 melanoma): < 10 nM
TGI (M14 melanoma): 104 nM
GI50 (HS 578T breast): 1140 nM
TGI (HS 578T breast): 15900 nM
GI50 (EKVX NSCLC): 758 nM
TGI (EKVX NSCLC): > 81900 nM
GI50 (CAKI-1 renal): 16.2 nM
TGI (CAKI-1 renal): 1100 nM
GI50 (OVCAR-5 ovarian): 287 nM
TGI (OVCAR-5 ovarian): > 24300 nM
GI50 (TK-10 renal): 1600 nM
TGI (TK-10 renal): > 91400 nM
GI50 (DU-145 prostate): 16.8 nM
TGI (DU-145 prostate): > 100000 nM
GI50 (NCI-H460 lung): 14.1 nM
TGI (NCI-H460 lung): 343 nM
GI50 (UACC-257 melanoma): 226 nM
TGI (UACC-257 melanoma): 3360 nM
GI50 (OVCAR-8 ovarian): 22.8 nM
TGI (OVCAR-8 ovarian): > 100000 nM
GI50 (SF-268 CNS): < 10 nM
TGI (SF-268 CNS): 4040 nM
GI50 (MOLT-4 leukemia): < 10 nM
TGI (MOLT-4 leukemia): > 100000 nM
GI50 (RXF 393 renal): 27.9 nM
TGI (RXF 393 renal): 322 nM
GI50 (T-47D breast): < 10 nM
TGI (T-47D breast): > 100000 nM
GI50 (OVCAR-3 ovarian): 148 nM
TGI (OVCAR-3 ovarian): 3200 nM
GI50 (NCI-H522 lung): 16.7 nM
TGI (NCI-H522 lung): 3870 nM
GI50 (HOP-92 NSCLC): 42 nM
TGI (HOP-92 NSCLC): 2470 nM
GI50 (ACHN renal): 20.2 nM
TGI (ACHN renal): 1130 nM
GI50 (SK-MEL-2 melanoma): 790 nM
TGI (SK-MEL-2 melanoma): > 22600 nM
GI50 (MDA-MB-231 breast): 1590 nM
TGI (MDA-MB-231 breast): > 84100 nM
GI50 (U251 CNS): < 10 nM
TGI (U251 CNS): > 100000 nM
GI50 (PC-3 prostate): 144 nM
TGI (PC-3 prostate): > 100000 nM
GI50 (MDA-MB-435): 107 nM
TGI (MDA-MB-435): 2700 nM
GI50 (A498 renal): 14.1 nM
TGI (A498 renal): 175 nM
GI50 (IGROV1 ovarian): 214 nM
TGI (IGROV1 ovarian): > 42700 nM
GI50 (OVCAR-4 ovarian): 392 nM
TGI (OVCAR-4 ovarian): 63700 nM
GI50 (HCT-116 colon): < 10.8 nM
TGI (HCT-116 colon): > 100000 nM
GI50 (RPMI-8226 leukemia): 270 nM
TGI (RPMI-8226 leukemia): 3480 nM
GI50 (SK-MEL-28 melanoma): 577 nM
TGI (SK-MEL-28 melanoma): 8900 nM
GI50 (HT29 colon): 120 nM
TGI (HT29 colon): > 21200 nM
GI50 (SR leukemia): < 10 nM
TGI (SR leukemia): > 100000 nM
GI50 (HCC-2998 colon): 250 nM
TGI (HCC-2998 colon): 3560 nM
GI50 (UO-31 renal): 27.4 nM
TGI (UO-31 renal): 294 nM
GI50 (LOX IMVI melanoma): < 10 nM
TGI (LOX IMVI melanoma): 167 nM
GI50 (KM12 colon): 167 nM
TGI (KM12 colon): > 30100 nM
